Measured values as given in ChEMBL document CHEMBL2074264, “Expression cloning and characterization of ROAT1. The basolateral organic anion transporter in rat kidney” (J Biol Chem, 1997).

T1: Solute carrier family 22 member 6 (Rattus norvegicus, UniProt O35956)
T1 sequence (O35956 whole entry): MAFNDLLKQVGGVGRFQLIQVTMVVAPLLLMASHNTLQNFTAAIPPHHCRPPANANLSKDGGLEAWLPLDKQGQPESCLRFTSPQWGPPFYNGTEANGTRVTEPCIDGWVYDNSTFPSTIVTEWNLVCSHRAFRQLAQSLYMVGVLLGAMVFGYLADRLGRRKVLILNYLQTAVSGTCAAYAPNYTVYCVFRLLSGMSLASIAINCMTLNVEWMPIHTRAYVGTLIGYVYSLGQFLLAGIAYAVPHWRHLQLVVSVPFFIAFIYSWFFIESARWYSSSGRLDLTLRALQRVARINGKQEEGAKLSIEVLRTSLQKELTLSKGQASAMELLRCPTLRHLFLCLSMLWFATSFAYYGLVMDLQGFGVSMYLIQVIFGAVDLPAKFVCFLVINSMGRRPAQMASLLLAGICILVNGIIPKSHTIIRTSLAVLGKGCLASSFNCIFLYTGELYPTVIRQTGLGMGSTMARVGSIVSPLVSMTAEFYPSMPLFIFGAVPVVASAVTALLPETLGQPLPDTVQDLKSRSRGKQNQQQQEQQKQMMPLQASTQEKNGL


What was measured:
[1] = biological target: T1, Solute carrier family 22 member 6; experiment: TP_TRANSPORTER: inhibition of PAH uptake (PAH: 50 uM, Urate; 1000 uM) in Xenopus laevis oocytes; type: functional, cell-based; details: oocyte
[2] = substrate: Nc1ccc(C(=O)NCC(=O)O)cc1; experiment: cells, lysate or membranes named

Molecule	Activity [1]	Km [2]
O=c1[nH]c(=O)c2[nH]c(=O)[nH]c2[nH]1 [URIC ACID]	is not an inhibitor [-]	
Solute carrier family 22 member 6 (Rattus norvegicus) (protein) MAFNDLLKQVGGVGRFQLIQVTMVVAPLLLMASHNTLQNFTAAIPPHHCRPPANANLSKDGGLEAWLPLDKQGQPESCLRFTSPQWGPPFYNGTEANGTRVTEPCIDGWVYDNSTFPSTIVTEWNLVCSHRAFRQLAQSLYMVGVLLGAMVFGYLADRLGRRKVLILNYLQTAVSGTCAAYAPNYTVYCVFRLLSGMSLASIAINCMTLNVEWMPIHTRAYVGTLIGYVYSLGQFLLAGIAYAVPHWRHLQLVVSVPFFIAFIYSWFFIESARWYSSSGRLDLTLRALQRVARINGKQEEGAKLSIEVLRTSLQKELTLSKGQASAMELLRCPTLRHLFLCLSMLWFATSFAYYGLVMDLQGFGVSMYLIQVIFGAVDLPAKFVCFLVINSMGRRPAQMASLLLAGICILVNGIIPKSHTIIRTSLAVLGKGCLASSFNCIFLYTGELYPTVIRQTGLGMGSTMARVGSIVSPLVSMTAEFYPSMPLFIFGAVPVVASAVTALLPETLGQPLPDTVQDLKSRSRGKQNQQQQEQQKQMMPLQASTQEKNGL		70 µM
